# Data as given in US7928140B2, “Benzothiazole PI3 kinase modulators for cancer treatment” (Amgen Inc., priority 2007, dated 2011).
# Tests used:
# PI3K β = target: T1, PI3K β (Homo sapiens, UniProt P42338); test: In vitro PI3 kinase enzyme assay (beta), ATP loss, bioluminescence; type: biochemical; settings: read-out: PI3Kβ ATP loss IC50;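 note: purified p110β/p85 heterodimer with PtdIns(4,5)P2 as acceptor, incubated at room temperature, leftover ATP read by luminescence, inhibition scaled to compound-free wells with and without enzyme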
# T1 construct: Full length p110 subunits of PI3K α, β and δ, N-terminally labeled with polyHis tag; polyHis (N); made in house; host or cells: Sf9 insect cells (baculovirus)
# T1 sequence (P42338 whole entry): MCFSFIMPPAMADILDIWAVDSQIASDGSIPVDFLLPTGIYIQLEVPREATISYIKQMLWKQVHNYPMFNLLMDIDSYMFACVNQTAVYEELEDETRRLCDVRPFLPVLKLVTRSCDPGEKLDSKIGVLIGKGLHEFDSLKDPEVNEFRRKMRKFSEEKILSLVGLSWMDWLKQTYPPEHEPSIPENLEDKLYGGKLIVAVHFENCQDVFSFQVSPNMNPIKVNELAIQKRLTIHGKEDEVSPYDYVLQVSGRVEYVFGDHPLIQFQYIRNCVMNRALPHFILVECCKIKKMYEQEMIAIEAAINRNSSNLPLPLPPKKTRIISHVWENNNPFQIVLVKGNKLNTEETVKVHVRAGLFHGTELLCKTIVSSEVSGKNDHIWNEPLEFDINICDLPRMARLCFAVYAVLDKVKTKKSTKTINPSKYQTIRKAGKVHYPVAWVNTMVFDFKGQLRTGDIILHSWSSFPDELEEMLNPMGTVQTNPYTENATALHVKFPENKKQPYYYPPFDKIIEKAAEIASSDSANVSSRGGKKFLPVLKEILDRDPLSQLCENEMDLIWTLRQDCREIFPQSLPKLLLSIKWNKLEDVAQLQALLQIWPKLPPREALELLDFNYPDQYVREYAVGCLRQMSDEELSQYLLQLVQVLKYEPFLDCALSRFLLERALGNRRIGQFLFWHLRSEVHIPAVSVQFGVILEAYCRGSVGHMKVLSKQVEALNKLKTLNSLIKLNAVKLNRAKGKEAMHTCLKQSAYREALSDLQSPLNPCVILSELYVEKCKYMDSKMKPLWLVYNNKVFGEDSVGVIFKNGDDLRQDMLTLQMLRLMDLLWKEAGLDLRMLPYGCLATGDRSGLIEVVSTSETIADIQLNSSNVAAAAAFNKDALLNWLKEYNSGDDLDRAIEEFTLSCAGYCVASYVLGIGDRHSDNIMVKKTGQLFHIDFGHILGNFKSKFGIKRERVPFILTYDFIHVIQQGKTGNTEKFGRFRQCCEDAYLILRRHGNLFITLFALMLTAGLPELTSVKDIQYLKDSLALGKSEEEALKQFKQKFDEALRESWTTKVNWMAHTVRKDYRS
# T1 sequence (P27986 whole entry partner): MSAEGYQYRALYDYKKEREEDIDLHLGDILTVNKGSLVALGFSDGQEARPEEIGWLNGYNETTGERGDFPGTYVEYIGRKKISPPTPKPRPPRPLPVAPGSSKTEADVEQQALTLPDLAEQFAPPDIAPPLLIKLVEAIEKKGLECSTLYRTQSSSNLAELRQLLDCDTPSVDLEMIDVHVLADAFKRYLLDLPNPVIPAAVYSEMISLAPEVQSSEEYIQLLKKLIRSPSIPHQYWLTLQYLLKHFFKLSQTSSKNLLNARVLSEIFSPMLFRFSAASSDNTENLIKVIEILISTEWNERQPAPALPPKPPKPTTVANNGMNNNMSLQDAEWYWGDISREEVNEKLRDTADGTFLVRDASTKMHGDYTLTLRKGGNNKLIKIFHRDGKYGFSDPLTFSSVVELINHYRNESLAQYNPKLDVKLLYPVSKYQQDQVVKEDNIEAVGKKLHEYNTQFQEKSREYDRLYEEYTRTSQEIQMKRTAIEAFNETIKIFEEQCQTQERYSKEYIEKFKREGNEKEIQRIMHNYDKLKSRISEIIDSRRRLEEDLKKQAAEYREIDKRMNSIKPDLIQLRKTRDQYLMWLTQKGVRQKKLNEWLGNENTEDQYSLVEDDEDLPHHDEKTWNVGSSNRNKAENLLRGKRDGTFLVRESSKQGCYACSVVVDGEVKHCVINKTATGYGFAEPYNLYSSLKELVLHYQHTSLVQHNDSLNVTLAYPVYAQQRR
# Method: Full length p110 subunits of PI3K α, β and δ, N-terminally labeled with polyHis tag, were co-expressed with p85 in baculovirus expression vectors in sf9 insect cells. P110/p85 heterodimers were purified by sequential Ni-NTA, Q-HP, and Superdex-100 chromatography. Purified α, β and δ isozymes were stored at −20° C. in 20 mM Tris, pH 8, 0.2M NaCl, 50% glycerol, 5 mM DTT, 2 mM Na cholate.
# PI3K enzyme assays (alpha, beta, delta and gamma) were performed in 25 mL with the above final concentrations of components in white polypropylene plates (Costar catalogue #3355). Phosphatidyl inositol phosphoacceptor, PtdIns(4,5)P2 (eg. P4508) was obtained from Echelon Biosciences. The ATPase activity of the alpha and gamma isozymes was not greatly stimulated by PtdIns(4,5)P2 under these conditions and was therefore omitted from the assay of these isozymes. Test compounds were dissolved in DMSO and diluted with three-fold serial dilutions. The compound in DMSO (1 μL) was added per test well, and the inhibition relative to reactions containing no compound, with and without enzyme was determined. After assay incubation at RT, the reaction was stopped and residual ATP determined by addition of an equal volume of a commercial ATP bioluminescence kit (Perkin Elmer EasyLite) according to the manufacturer's instructions, and detected using an Analyst GT luminometer.
# [1] = tested on: phosphorylation of Serine 473 in Akt, HCT 116 human colon carcinoma cells; test: Cell-based phospho-AKT Ser473 assay (MSD sandwich immunoassay, IGF-1 stimulated); settings: Homo sapiens, HCT-116, HCT 116 cells; read-out: HCT 116 pAKT IC50
# Method: This assay determines the ability of test compounds to inhibit the phosphorylation of […] in Akt using a MSD based sandwich immunoassay (Meso Scale Detection, catalogue # N411CAB-1). […] Prior to the assay cells were detached from the culture flask with trypsin, and re-suspended in complete media to give a final concentration of 1.6×10^5 cells per ml. Aliquots (100 μl) of the HCT116 cell suspension were seeded into each well of a 96 well tissue culture plate (Corning Incorporated COSTAR, catalogue#3595) to give a final density of 16,000 cells per well. Cells were then incubated overnight at 37° C. The following day the cells were treated with serially diluted test compounds and incubated for 2 hours at 37° C. […] As a maximum response control, wells contained 0.5% DMSO in place of test compound. The plates were mixed at 700 rpm for 2 min to ensure even distribution of the test compound and incubated for 2 hours at 37° C. Cells were then stimulated with insulin-like growth factor 1 (Sigma, product #13769) at final concentration of 100 ng/ml for 15 minutes at 37° C. The media was then removed and the cells treated with 80 μl cell-lysis buffer (MSD) containing a cocktail of protease and phosphatase inhibitors for one hour at 4° C. […] The detection antibody was removed and plates were then washed four times with 200 μl per well of Tris wash buffer. An aliquot of 150 μl of diluted MSD read buffer was then applied to each well, and the electrochemiluminescent signal was measured using a MSD SECTORTM plate reader. This instrument measures the intensity of emitted light to determine a quantitative measure of phosphorylated Akt in each well. The dose-response data obtained with each compound were analyzed and the IC50 inhibition of Akt phosphorylation at Ser473 calculated.
# PI3K α = target: T2, PI3K α (Homo sapiens, UniProt P42336); test: In vitro PI3 kinase enzyme assay (alpha), ATP loss, bioluminescence; type: biochemical; settings: read-out: PI3Kα ATP loss IC50;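 note: purified p110α/p85 heterodimer acting on PtdIns(4,5)P2 at room temperature, remaining ATP read by luminescence, inhibition scaled between compound-free wells with and without enzyme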
# T2 construct: Full length p110 subunits of PI3K α, β and δ, N-terminally labeled with polyHis tag; polyHis (N); made in house; host or cells: Sf9 insect cells (baculovirus)
# T2 sequence (P42336 whole entry, species assumed): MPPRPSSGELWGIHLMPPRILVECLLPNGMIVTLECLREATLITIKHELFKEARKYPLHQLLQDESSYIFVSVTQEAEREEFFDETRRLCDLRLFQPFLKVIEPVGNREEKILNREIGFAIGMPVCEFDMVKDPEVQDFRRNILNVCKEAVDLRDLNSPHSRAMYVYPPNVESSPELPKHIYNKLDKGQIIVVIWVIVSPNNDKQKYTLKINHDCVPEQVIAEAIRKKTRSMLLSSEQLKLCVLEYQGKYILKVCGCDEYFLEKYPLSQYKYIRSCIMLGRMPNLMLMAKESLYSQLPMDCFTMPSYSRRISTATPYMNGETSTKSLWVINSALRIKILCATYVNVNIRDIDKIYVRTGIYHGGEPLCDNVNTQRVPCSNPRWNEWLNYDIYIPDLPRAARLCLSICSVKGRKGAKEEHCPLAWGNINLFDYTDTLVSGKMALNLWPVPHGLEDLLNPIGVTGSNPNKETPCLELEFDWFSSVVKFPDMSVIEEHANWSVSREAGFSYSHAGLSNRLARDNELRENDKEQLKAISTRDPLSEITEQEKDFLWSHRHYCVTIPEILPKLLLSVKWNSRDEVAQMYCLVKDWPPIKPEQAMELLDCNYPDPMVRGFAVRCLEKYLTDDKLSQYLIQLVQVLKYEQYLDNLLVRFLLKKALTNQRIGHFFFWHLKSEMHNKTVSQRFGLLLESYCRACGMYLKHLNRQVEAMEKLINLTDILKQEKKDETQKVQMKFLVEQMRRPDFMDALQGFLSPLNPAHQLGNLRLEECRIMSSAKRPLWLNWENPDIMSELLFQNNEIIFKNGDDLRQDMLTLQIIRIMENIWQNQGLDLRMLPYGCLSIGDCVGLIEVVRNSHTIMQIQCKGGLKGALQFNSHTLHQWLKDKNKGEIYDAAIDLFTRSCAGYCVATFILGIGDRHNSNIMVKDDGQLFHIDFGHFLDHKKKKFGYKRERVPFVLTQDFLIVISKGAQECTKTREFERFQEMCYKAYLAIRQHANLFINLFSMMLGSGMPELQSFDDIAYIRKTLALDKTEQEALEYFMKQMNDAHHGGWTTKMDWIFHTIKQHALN
# T2 sequence (P27986 whole entry partner, species assumed): as the sequence (P27986 whole entry partner) above
SMILES,IC50 (PI3K β) [nM],IC50 [1] [nM],IC50 (PI3K α) [nM]
"CC(=O)Nc1nc2ccc(-c3ccnc(OCCCc4cccnc4)n3)cc2s1 [Example 1, N-(6-(2-(3-(pyridin-3-yl)propoxy)pyrimidin-4-yl)benzo[d]thiazol-2-yl)acetamide]",3610,1350,
"CC(=O)Nc1nc2ccc(-c3ccnc(OCc4cccc(F)c4)n3)cc2s1 [Example 12, N-(6-(2-((3-fluorobenzyl)oxy)-4-pyrimidinyl)-1,3-benzothiazol-2-yl)acetamide]",3960,3930,
"CC(=O)Nc1nc2ccc(-c3ccnc(SCc4ccccc4)n3)cc2s1 [Example 19, N-(6-(2-(benzylsulfanyl)-4-pyrimidinyl)-1,3-benzothiazol-2-yl)acetamide]",184,670,
"CC(=O)Nc1nc2ccc(-c3ccnc(Sc4ccccc4C)n3)cc2s1 [Example 34, N-(6-(2-((2-methylphenyl)sulfanyl)-4-pyrimidinyl)-1,3-benzothiazol-2-yl)acetamide]",1090,2160,
"CC(=O)Nc1nc2ccc(-c3ccnc(OCc4ccc(F)cc4)n3)cc2s1 [Example 39, N-(6-(2-((4-fluorobenzyl)oxy)-4-pyrimidinyl)-1,3-benzothiazol-2-yl)acetamide]",7910,> 40000,
"CSc1nccc(-c2ccc3nc(NC(C)=O)sc3c2)n1 [Example 50, N-(6-(2-(methylsulfanyl)-4-pyrimidinyl)-1,3-benzothiazol-2-yl)acetamide]",1180,1050,
"CC(=O)Nc1nc2ccc(-c3cccc(N(C)S(=O)(=O)c4ccc(C)cc4)n3)cc2s1 [Example 74, N-(6-(6-(N,4-Dimethylphenylsulfonamido)pyridin-2-yl)benzo[d]thiazol-2-yl)acetamide]",202,85.9,
"COc1ccc(S(=O)(=O)Nc2nccc(-c3ccc4nc(NC(C)=O)sc4c3)n2)cc1 [Example 78, N-(6-(2-(((4-methoxyphenyl)sulfonyl)amino)-4-pyrimidinyl)-1,3-benzothiazol-2-yl)acetamide]",67.2,428,
"CC(=O)Nc1nc2ccc(-c3ccnc(NS(=O)(=O)c4ccc(F)cc4)n3)cc2s1 [Example 80, N-(6-(2-(((4-fluorophenyl)sulfonyl)amino)-4-pyrimidinyl)-1,3-benzothiazol-2-yl)acetamide]",405,3220,
"CC(=O)Nc1nc2ccc(-c3ccnc(NS(=O)(=O)c4ccccc4F)n3)cc2s1 [Example 81, N-(6-(2-(((2-fluorophenyl)sulfonyl)amino)-4-pyrimidinyl)-1,3-benzothiazol-2-yl)acetamide]",103,4950,
"CC(=O)Nc1nc2ccc(-c3ccnc(NS(=O)(=O)c4cccc(F)c4)n3)cc2s1 [Example 82, N-(6-(2-(((3-fluorophenyl)sulfonyl)amino)-4-pyrimidinyl)-1,3-benzothiazol-2-yl)acetamide]",304,3900,
"CCN(c1nccc(-c2ccc3nc(NC(C)=O)sc3c2)n1)S(=O)(=O)c1ccc(OC)cc1 [Example 89, N-(6-(2-(N-Ethyl-4-methoxyphenylsulfonamido)pyrimidin-4-yl)benzo[d]thiazol-2-yl)acetamide]",442,692,
"CC(=O)Nc1nc2ccc(-c3ccnc(N(C)S(=O)(=O)c4ccc(C)cc4)n3)cc2s1 [Example 90, N-(6-(2-(N,4-Dimethylphenylsulfonamido)pyrimidin-4-yl)benzo[d]thiazol-2-yl)acetamide]",48.8,51.6,
"CC(=O)Nc1nc2ccc(-c3ccnc(N(C)S(=O)(=O)c4ccccc4F)n3)cc2s1 [Example 92, N-(6-(2-(2-Fluoro-N-methylphenylsulfonamido)pyrimidin-4-yl)benzo[d]thiazol-2-yl)acetamide]",310,888,
CC(=O)Nc1nc2ccc(-c3ccnc(NC(C)(C)c4ccccc4)n3)cc2s1 [Example 100],595,698,
"CC(=O)Nc1nc2ccc(-c3ccnc(Sc4cccc(F)c4)n3)cc2s1 [Example 109, N-(6-(2-((3-fluorophenyl)sulfanyl)-4-pyrimidinyl)-1,3-benzothiazol-2-yl)acetamide]",120,1840,
"COc1ccc(S(=O)(=O)Nc2cc(-c3ccc4nc(NC(C)=O)sc4c3)cnc2C)cc1 [Example 116, N-(6-(5-(((4-methoxyphenyl)sulfonyl)amino)-6-methyl-3-pyridinyl)-1,3-benzothiazol-2-yl)acetamide]",12,9.3,
"COc1ccc(S(=O)(=O)Nc2cncc(-c3ccc4nc(NC(C)=O)sc4c3)n2)cc1 [Example 118, N-(6-(6-(((4-methoxyphenyl)sulfonyl)amino)-2-pyrazinyl)-1,3-benzothiazol-2-yl)acetamide]",17.9,147,
"CC(=O)Nc1nc2ccc(-c3cnc(Cl)c(NS(=O)(=O)c4ccc(F)cc4)c3)cc2s1 [Example 162, N-(6-(6-Chloro-5-(4-fluorophenylsulfonamido)pyridin-3-yl)benzo[d]thiazol-2-yl)acetamide]",,10.4,
"CC(=O)Nc1nc2ccc(-c3cncc(NC(C)(C)C)n3)cc2s1 [Example 227, N-(6-(6-(tert-butylamino)pyrazin-2-yl)benzo[d]thiazol-2-yl)acetamide]",,362,
"CC(=O)Nc1nc2ccc(-c3cncc(OC[C@H]4CCC(=O)N4)c3)cc2s1 [Example 294, N-(6-(5-(((R)-5-oxopyrrolidin-2-yl)methoxy)pyridin-3-yl)benzo[d]thiazol-2-yl)acetamide]",,> 5000,
"CC(=O)Nc1nc2ccc(-c3cncc(O)c3)cc2s1 [Example 296, N-(6-(5-hydroxypyridin-3-yl)benzo[d]thiazol-2-yl)acetamide]",,418,
"CC(=O)Nc1nc2ccc(-c3ccc(Cl)nc3)cc2s1 [Example 297, N-(6-(6-chloropyridin-3-yl)benzo[d]thiazol-2-yl)acetamide]",,1190,
"COCC(=O)NCCOc1cncc(-c2ccc3nc(NC(C)=O)sc3c2)c1 [Example 298, N-(2-(5-(2-(N-actyl)aminobenzo[d]thiazol-6-yl)pyridin-3-yloxy)ethyl)-2-methoxyacetamide]",,1830,
"CC(=O)Nc1nc2ccc(-c3cncc(N4CC5CCC(CC5)C4)n3)cc2s1 [Example 300, N-(6-(6-(3-aza-bicyclo[3.2.2]nonan-3-yl)pyrazin-2-yl)benzo[d]thiazol-2-yl)acetamide]",,8940,
"COc1ccc(S(=O)(=O)Nc2cc(-c3ccc4nc(SC)sc4c3)cnc2Cl)cc1 [Example 327, N-(2-chloro-5-(2-(methylsulfanyl)-1,3-benzothiazol-6-yl)-3-pyridinyl)-4-methoxybenzenesulfonamide]",384,,222
"Oc1cc(-c2ccc3ncsc3c2)cnc1Cl [Example 334, 5-(1,3-benzothiazol-6-yl)-2-chloro-3-pyridinol]",1350,,116
"CC(=O)c1cncc(-c2ccc3ncsc3c2)c1 [Example 336, 1-(5-(1,3-benzothiazol-6-yl)-3-pyridinyl)ethanone]",13300,,2550
"Cc1nc2ccc(-c3cc(O)c(C(F)(F)F)nc3F)cc2s1 [Example 341, 6-fluoro-5-(2-methyl-1,3-benzothiazol-6-yl)-2-(trifluoromethyl)-3-pyridinol]",> 40000,,21800
